Results taken from patent US6673940B1, “Compositions and methods relating to cyclic compounds that undergo nucleotide base pair-specific interactions with double-stranded nucleic acids” (California Institute of Technology, priority 1999, dated 2004).

Tests used:
[1] = test system: 5′-AGTACT-3′ site on 229 bp restriction fragment of pJT8; assay: Quantitative DNase I footprint titration, 5′-AGTACT-3′ site; type: binding; conditions: for equilibrium association constant Ka at 5′-AGTACT-3′: 10 mM Tris•HCl, 10 mM KCl, 10 mM MgCl2, 5 mM CaCl2, pH 7.0, 22° C., match site for (3), single base pair mis-match for (4)
Description: (§1) FIGS. 8A and 8B depict the results quantitative DNase I footprint titration experiments with (a) cyclo-(Γ-Im-Py-Py-Py-(R)^H^2^Nγ-Im-Py-Py-Py) (3) and (b) cyclo-(γ-Im-Py-Py-Py(R)^H^2^Nγ-Py-Py-Py-Py) (4) on the 3′-end labeled 229-bp restriction fragment of pJT8. Lane 1, intact DNA control; lane 2, A reaction; lane 3, DNase I standard, lanes 4-13, 5 pM, 10 pM, 20 pM, 50 pM, 100 pM, 1 nM, 2 nM, 5 nM, and 10 nM of the respective polyamide. The 5′-AGTACT-3′ and 5′-AGTATT-3′ match and mis-match sites for each polyamide were analyzed and are shown on the right side of the respective autoradiograms. All reactions contained 20 kcpm of radiolabeled restriction fragment, 10 mM Tris•HCI (pH 7.0), 10 mM KC1, 10 mM MgCl2, and 5 mM CaCl2.
(§2) As controls, the binding affinities and sequence specificities of the Im-Py-Py-Py-β-Dp (1) unlinked 2:1 dimer and a hairpin analog 1m-Py-Py-Py-(R)^H,Nγ-Im-Py-Py-Py-C3-OH (2) were also studied. An EDTA analogue, cyclo-(γ-Im-Py-Py-Py-(R)^EDTA-FE(II)γ-Py-Py-Py-Py-) (4-E•Fe(II)) was constructed to confirm the binding orientation of cyclic polyamide (4) at its 5′-AGTATT-3′ match and 5′-AGTACT-3′ single base pair mismatch site. All polyamides were synthesized by solid phase methods (see Baird, et al., J. Am. Chem. Soc., vol. 118:6141 (1996), and U.S. Ser. No. 08/607,078 for a description of solid phase synthesis methods for non-cyclic polyamides). Polyamide purity and identity was confirmed by H NMR, MALDI-TOF MS, and analytical HPLC. Precise binding site sizes were determined by MPE•Fe(II) footprinting (see Van Dyke, et al., Proc. Natl. Acad. Sci. U.S.A., vol. 79:5470 (1982), and Van Dyke and Dervan, Science, vol. 225:1122 (1984)), and binding orientation and stoichiometry confirmed by affinity cleaving experiments. See Taylor, et al., Tetrahedron, vol.40:457 (1984), and Dervan, P. B., Science, vol. 232:464 (1986). Equilibrium association constants (Ka) of the polyamides for their respective match and mis-match binding sites were determined by quantitative DNase I footprint titration, as described by Brenowitz, et al., Methods Enzymol., vol. 130:132 (1986), Brenowitz, et al., Proc. Natl. Acad. Sci. U.S.A., vol 83:8462 (1986), and Senear, et al., Biochemistry, vol. 25:7344 (1986).
Quantitative DNase I footprint titrations (10 mm Tris•HCI, 10 mM KCl, 10 MM MgCl2 and 5 mM CaCl2 pH 7.0 and 22° C.) were performed to determine the equilibrium association constants (Ka) of Im-Py-Py-Py-β-Dp (1), Im-Py-Py-Py-(R)^H,NγIm-Py-Py-Py-OH (2), cyclo-(γ-Im-Py-Py-Py-(R)^H,Nγ-Im-Py-Py-Py) (3), and cyclo-(γ-Im-Py-Py-Py-(R)^H,Nγ-Py-Py-Py-Py-) (4) for the 6 bp match and mis-match sites. The results for (3) and (4) are depicted in FIG. 8.

[2] = test system: 5′-TGTTA-3′ dsDNA target sequence; conditions: Cho et al. 1995; cited from earlier work
[3] = test system: 229 base pair DNA restriction fragment from the plasmid pJT8 (5′-AGTATT-3′ and 5′-AGTACT-3′ sites); assay: Affinity cleavage experiments; type: binding; conditions: 100 nM; 20 mM HEPES pH 7.3, 200 mM NaCl, 1 μM Fe(II), 22° C.
Description: FIGS. 6A and 6B show the results of affinity cleaving experiments using cyclo-(γ-Im-Py-Py-Py-(R)^EDTA-Fe(II)γ-Py-Py-Py-Py) (4-E•Fe(II)) on the (a) 3′- and (b) 5′-^32P-labeled 229 bp restriction fragment of pJT8. The match and single mis-match sites 5′-AGTATT-3′ and 5′-AGTACT-3′ are shown on the right side of the autoradiograms. The lanes of each gel are described as follows lane 1, intact DNA (control); lane 2, A reaction; lanes 3-7, 100 pM, 1 nM, 10 nM, and 100 nM, and 1 μM polyamide, respectively. All lanes contain 15 kcpm of either 3′- or 5′-radiolabeled DNA, 20 mM HEPES buffer (pH 7.3), 200 mM NaCl, 50 μg/ml glycogen, 5 mM DTT, 1 μM Fe(II), pH 7.0, and were run at 22° C.
FIGS. 7A-7C illustrate the synthesis of cyclo-(γ-Im-Py-Py-Py(R)^EDTA•Fe(II)γPy-Py-Py-Py) (4-E•Fe(II)) from cyclo-(γ-Im-Py-Py-Py-(R)^H2^Nγ-Py-Py-Py-Py) (4) by: (i) EDTA dianhydride (DMSO/NMP, DIEA, 55° C., 15 min); (ii) 0.1 M NaOH (55° C., 10 min). […] Bar heights are proportional to the relative cleavage intensities at each base pair. Shaded and non-shaded circles denote Im and Py carboxamides, respectively. The boxed Fe denotes the EDTA•Fe(II) cleavage moiety. […]

[4] = test system: 5′-AGTATT-3′ site on 229 bp restriction fragment of pJT8; assay: Quantitative DNase I footprint titration, 5′-AGTATT-3′ site; type: binding; conditions: for equilibrium association constant Ka at 5′-AGTATT-3′: 10 mM Tris•HCl, 10 mM KCl, 10 mM MgCl2, 5 mM CaCl2, pH 7.0, 22° C., match site for (4), single base pair mis-match for (3)
Description: as §1
as §2, with “130:132 (1986), Brenowitz, et al., Proc. Natl. Acad. Sci. U.S.A., vol 83:8462 (1986), and Senear, et al., Biochemistry, vol. 25:7344 (1986).” left out

[5] = test system: 229 base pair restriction fragment of pJT8 (5′-AGTACT-3′ and 5′-AGTATT-3′ sites); assay: MPE•Fe(II) footprinting; type: binding; conditions: 25 mM HEPES pH 7.3, 200 mM NaCl, 22°; for MPE•Fe(II) footprinting: binding at match site: 10 nM polyamide
Description: FIG. 5 illustrates the 229 bp restriction fragment with the relative positions of the match and single base pair mis-match sequences indicated for two 8-ring cyclic polyamides, cyclo-(γ-Im-Py-Py-Py-(R)^H2^Nγ-Im-Py-Py-Py) (3) and cyclo-(γ-Im-Py-Py-Py-(R)^H2^Nγ-Py-Py-Py-Py) (4). MPE•Fe(II) protection patterns of 10 nM cyclo-(γ-Im-Py-Py-Py-(R)^H2^Nγ-Im-Py-Py-Py) (3) and 10 nM cyclo-(γ-Im-Py-Py-Py-(R)^H2^Nγ-Py-Py-Py-Py) (4) are shown by the bar graphs. Bar heights are proportional to the relative protection from cleavage at each base pair. Binding sites determined by MPE•Fe(II) footprinting and quantitated by DNase I footprint titrations are boxed. Autoradiograms of MPE•Fe(II) footprinting experiments using cyclo-(γ-Im-Py-Py-Py-(R)^H^2^Nγ-Im-Py-Py-Py) (3) (left) and cyclo-(γ-Im-Py-Py-Py-(R)^H^2^Nγ-Py-Py-Py-Py) (4) (right) on the 3′ ^32P-labeled 229 bp restriction fragment of pJT8. 5′-AGTATT-3′ and 5′-AGTACT-3′ sites are shown adjacent to the auto radiograms. Lane 1, intact control; lane 2, MPE•Fe(II) reaction; lane 3, A reaction standard; lanes 4-8: 100 pM; 1 nM; 10 nM; 100 nM; and […] polyamide, respectively. All lanes contain 15 kcpm of either 3′ or 5′-radiolabeled DNA, 25 mM HEPES buffer (pH 7.3), 200 mM NaCl, […] glycogen, 5 mM DTT, 0.5 mM MPE•Fe(II), and were run at 22° C.
as §2, with “25:7344 (1986). […]” for “25:7344 (1986).”

| Substance | increase in dsDNA binding affinity relative to unlinked, dimeric polyamide (1) ([1]; 5′-AGTACT-3′ match site) | specificity for match sequence versus single base pair mismatch sites [2] | equilibrium association constant Ka at 5′-AGTACT-3′ [1] | equilibrium association constant Ka at 5′-AGTATT-3′ [4] | MPE•Fe(II) footprinting: binding at match site [5] | MPE•Fe(II) footprinting: binding at single base pair mismatch site [5] | further results |
| --- | --- | --- | --- | --- | --- | --- | --- |
| Im-Py-Py-Py-(R)^H2Nγ-Im-Py-Py-Py-OH [polyamide 2, reference compound] | 428 fold |  |  |  |  |  | lower affinity than previously described hairpin Im-Py-Py-Py-γ-Im-Py-Py-Py-β-Dp [1]: 4 fold; lower sequence specificity than previously described hairpin Im-Py-Py-Py-γ-Im-Py-Py-Py-β-Dp [1]: 5 |
| Im-Py-Py-γ-Py-Py-Py-Dp |  | 20 fold |  |  |  |  |  |
| cyclo-(Im-Py-Py-γ-Py-Py-Py-γ) |  | 4-17 fold |  |  |  |  | concentration at which the five base pair target 5′-TGTTA-3′ is bound [2]: subnanomolar; higher affinity relative to hairpin analog Im-Py-Py-γ-Py-Py-Py-Dp [2]: 40 fold |
| cyclo-(γ-Im-Py-Py-Py-(R)^EDTA•Fe(II)γ-Py-Py-Py-Py-) [4-E•Fe(II)] |  |  |  |  |  |  | affinity cleavage pattern at 5′-AGTACT-3′ single base pair mis-match site [3]: minor cleavage loci located 3′ and 5′ adjacent to the single base pair mis-match 5′-AGTACT-3′ site; affinity cleavage pattern at 5′-AGTATT-3′ match site [3]: major cleavage locus proximal to the 3′ side of the 5′-AGTATT-3′ match sequence |
| cyclo-(γ-Im-Py-Py-Py-(R)^H2Nγ-Im-Py-Py-Py) [polyamide 3] | 3,600 fold |  | 7.6e+10 M⁻¹ | 1.3e+09 M⁻¹ | bound to its designated 6 bp match sites | detected only at much higher polyamide concentrations | affinity enhancement relative to hairpin polyamide (2) ([1]; 5′-AGTACT-3′ match site): 8 fold; specificity for match 5′-AGTACT-3′ over single base pair mis-match 5′-AGTATT-3′ ([1]; ratio of Ka values): 55 fold |
| cyclo-(γ-Im-Py-Py-Py-(R)^H2Nγ-Py-Py-Py-Py) [polyamide 4] |  |  | 4.2e+08 M⁻¹ | 3.1e+09 M⁻¹ | bound to its designated 6 bp match sites | protected its targeted match site 5′-AGTATT-3′ and the single base pair mismatch site 5′-AGTACT-3′ | preference for match 5′-AGTATT-3′ versus single base pair mis-match 5′-AGTACT-3′ ([4]; ratio of Ka values): 7 fold |
